For one experiment, the target named is porcine TASK-1 (pTASK-1) (Sus scrofa, UniProt A0A286ZMZ4). The experiment is described as follows: two-electrode voltage clamp in Xenopus oocytes at […]. The experiment is classed as cell-based. The following applies: read-out: % of control current at 100 μmol/L.
The target of experiment [1] is human TASK-1 (hTASK-1, hK2P3.1) (Homo sapiens, UniProt O14649). The description is as above. The settings on record: read-out: % of control current at 100 μmol/L. The experiment is classed as cell-based.
Chain of human TASK-1 (hTASK-1, hK2P3.1) (O14649 whole entry): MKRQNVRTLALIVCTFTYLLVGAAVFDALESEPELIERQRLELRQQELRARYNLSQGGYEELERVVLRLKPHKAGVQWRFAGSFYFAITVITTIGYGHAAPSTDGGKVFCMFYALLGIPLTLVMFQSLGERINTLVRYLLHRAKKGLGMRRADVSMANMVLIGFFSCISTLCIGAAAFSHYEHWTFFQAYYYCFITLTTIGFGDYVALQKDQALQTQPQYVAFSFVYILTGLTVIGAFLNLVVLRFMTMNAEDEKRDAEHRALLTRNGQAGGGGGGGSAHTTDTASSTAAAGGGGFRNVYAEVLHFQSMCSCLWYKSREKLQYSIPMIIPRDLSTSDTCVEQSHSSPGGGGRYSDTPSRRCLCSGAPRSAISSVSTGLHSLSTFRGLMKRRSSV

Chain of porcine TASK-1 (pTASK-1) (A0A286ZMZ4 1-401): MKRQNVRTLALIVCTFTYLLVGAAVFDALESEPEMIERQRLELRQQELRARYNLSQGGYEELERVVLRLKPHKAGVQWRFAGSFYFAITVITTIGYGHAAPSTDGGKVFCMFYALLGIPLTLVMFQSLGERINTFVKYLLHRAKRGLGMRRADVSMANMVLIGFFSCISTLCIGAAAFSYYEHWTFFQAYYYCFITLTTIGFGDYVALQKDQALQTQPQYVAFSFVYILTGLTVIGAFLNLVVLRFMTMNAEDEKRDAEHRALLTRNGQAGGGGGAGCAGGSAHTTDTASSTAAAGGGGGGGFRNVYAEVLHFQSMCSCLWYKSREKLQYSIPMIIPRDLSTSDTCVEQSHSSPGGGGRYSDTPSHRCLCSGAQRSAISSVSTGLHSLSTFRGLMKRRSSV

`CCCCS(=O)(=O)Nc1ccccc1C(=O)N[C@H](CC)c1ccc(OC)nc1` [A293, 2‐(butylsulfonylamino)‐N‐[(1R)‐1‐(6‐methoxy‐3‐pyridyl)propyl]‐benzamide]: the figures for the remaining activity at 100 µM (at porcine TASK-1 (pTASK-1); in experiment [1]) were 28 ± 6.8% and 21.3 ± 8.7%, respectively.

The record behind these values is article PMC7660874 (Journal of the American Heart Association: Cardiovascular …, 2020).
